Results published in US20250101204A1, “COMPOSITIONS AND METHODS FOR PROTECTING AGAINST CELL DAMAGE AND INFLAMMATION” (priority 2022, published 2025).
Changes are numbered by the printed parent chain. Entries after “also recorded” stand apart in the source; their conditions may differ. Where two headings read alike, the source gives them in different places. Peptide text beside a SMILES is read from it. * marks the point of attachment. Cbz = O=C(OCc1ccccc1)*

What was measured:
HMGB1 [1] = target: T1, HMGB1 (Homo sapiens, UniProt P09429); test: HMGB1 cytosol/nuclear distribution in fractionated PASMC; assay type: cell-based; settings: for cytosol and nuclear levels of HMGB1: PASMC cytosolic and nuclear fraction; for exit of nuclear HMGB1 to the cytosol: especially evident in male cells
T1 construct: endogenous in cells; host or cells: pulmonary artery smooth muscle cells (PASMC), male and female
T1 sequence (P09429 1-215): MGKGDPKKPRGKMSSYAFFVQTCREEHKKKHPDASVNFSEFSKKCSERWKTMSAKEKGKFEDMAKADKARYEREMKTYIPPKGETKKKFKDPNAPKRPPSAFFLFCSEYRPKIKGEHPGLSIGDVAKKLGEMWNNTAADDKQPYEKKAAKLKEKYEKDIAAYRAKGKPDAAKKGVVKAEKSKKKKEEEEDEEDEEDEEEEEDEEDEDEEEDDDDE
Description: FIGS. 1A, 1B, 1C, and 1D show only intracellular Cysteine^106 lowers HMGB1 levels in both fractions. FIGS. 1A and 1B show peptides that bind to HMGB1^Cys106 but not HMGB1^Cys23/45 reduce HMGB1 levels in PASMC cytosolic and nuclear fraction.
FIGS. 2A and 2B show […] increases HMGB1 expulsion from the nucleus to cytosol. A proteasome inhibitor (e.g., MG 132) restores cytosolic (FIG. 2A) and nuclear (FIG. 2B) HMGB1 levels reduced by αHMGB1^Cys106 peptide.
(§1) To study the activities of HMGB1 cysteines, peptides were designed that bind to the specific regions of HMGB1 and, by shielding either Cys106 or Cys23/45, prevent their interaction with the downstream targets. The peptides with cell-penetrating TAT sequences were used to study the intracellular role of HMGB1 cysteines, while peptides without TAT served as extracellular controls. Fractionating pulmonary artery smooth muscle cells (PASMC) allowed the evaluation of HMGB1 cytosol/nuclear distribution. […] The protective role of peptide in vivo was estimated using the rat Sugen/Hypoxia PH model. Given the discovered sex difference in the HMGB1-mediated signaling, the in vitro and in vivo studies were replicated in male and female animals and cells.
(§2) To study the activities of HMGB1 cysteines, peptides were designed with cell-penetrating TAT sequences that bind to either Cys106 or Cys23/45 and prevent the interaction of these cysteines with the downstream targets. The intracellular activities of peptides were evaluated by measuring HMGB1 cytosol/nuclear distribution and the ability to regulate the recombinant HMGB1 binding to double-stranded DNA. The protective role of the Cys106-shielding peptide (αHMGB1^Cys106; SEQ ID NO: 4) was estimated using the rat Sugen/Hypoxia (Su/Hx) PAH model and human endothelial pulmonary artery cells (hPAEC).

TLR4 = test: cytosolic and nuclear TLR4 protein levels; assay type: cell-based
Description: as §1

HMGB1 [2] = target: T2, HMGB1 (Rattus norvegicus, UniProt P63159); test: plasma HMGB1 levels in Su/Hx rats; assay type: in vivo
T2 construct: from tissue; host or cells: plasma of Su/Hx rats
T2 sequence (P63159 1-215): T1 sequence (P09429 1-215) with E189D, D202E
Description: FIGS. 11A and 11B show the sex differences in plasma HMGB1 levels in response to αHMGB1^Cys106 peptides (e.g., SEQ. ID NO: 4) in early PH stages. Note: SU2 is related to the 2 weeks after exposure to SU5416 (PAH inducer), and is indicative of a relatively early disease stage; SU5 means 5 weeks after exposure to SU5416, and is indicative of an advanced stage of the disease.
The cytosol and nuclear levels of HMGB1 were affected by a cell-penetrating peptide designed to shield Cys106 (TAT-α-HMGB1^Cys106, or α-Cys106) and not any other peptide.

[3] = test system: rat Sugen/Hypoxia (Su/Hx) PAH model; test: rat Sugen/Hypoxia (Su/Hx) PAH model, hemodynamics and right ventricle; assay type: in vivo; settings: for right ventricle (RV) systolic pressure / protection of the RV: females, 2.5 mg/kg/day i.p.; for right ventricle (RV) systolic pressure: early stage of PH; for protection of the RV: later stage of PH; for hemodynamic parameters / protection in males: male PH rats
Description: as §1, with “cells. […]” for “cells.”
as §2, with “(hPAEC). […]” for “(hPAEC).”

[4] = test system: human pulmonary artery endothelial cells (HPAEC); test: genotoxic stress induced in HPAEC by Doxorubicin; assay type: cell-based; settings: Doxorubicin 1 μg/ml for 24 h
Method: as §2

[5] = test system: lungs and heart of Su/Hx rats; test: lung and heart cell damage readouts in Su/Hx rats (apoptosis, senescence, necroptosis, genotoxic stress, fibrosis, hypertrophy); assay type: in vivo, rat; settings: for genotoxic stress in vivo: Su/Hx rats, in b88 males; for senescence: female and early-stage male PAH
[6] = target: T3, recombinant fully reduced HMGB1 (Homo sapiens, UniProt P09429); test: HMGB1 binding to calf thymus double-stranded DNA cellulose with or without shielding peptide; assay type: biochemical
T3 sequence (P09429 1-215): T1 sequence (P09429 1-215)
Method: The left two gel blots show HMGB1 elution after incubation with DNA cellulose.
as §1
as §2, with “The protective role of the Cys106-shielding peptide (αHMGB1^Cys106; SEQ ID NO: 4) was estimated using the rat Sugen/Hypoxia (Su/Hx) PAH model and human endothelial pulmonary artery cells (hPAEC).” left out

p53 [7] = test: p53 levels in nuclei of PASMC; assay type: cell-based
Description: as §1

[8] = test system: human pulmonary artery endothelial cells (HPAEC); test: apoptosis in HPAEC stimulated by RITA; assay type: cell-based
Method: as §2

apoptosis = test: cell apoptosis induced by the p53 activator; assay type: cell-based
p53 [9] = test: p53 expression in vivo in Su/Hx rats; design: species or system rat; settings: either sex
[10] = listed as α-Cys106, 2.5 mg/kg/day

Compound: SIGDVAKKLGEMWNNGRKKRRQRRRPQ [HMGB1^Cys23/45]
- cytosol and nuclear levels of HMGB1 (HMGB1 [1]): not

Compound: FFLFCSEYRPKIKGRKKRRQRRRPQ [αHMGB1^Cys106 peptide, cell-penetrating TAT peptide designed to shield HMGB1 Cys106]
- TLR4 protein levels / expression (TLR4): reduces cytosolic and nuclear TLR4 protein levels
- TLR4 protein levels / expression (TLR4; listed as α-Cys106): negatively affected
- plasma HMGB1 levels (HMGB1 [2]; females, 2.5 mg/kg/day i.p.): reduced plasma HMGB1 levels
- plasma HMGB1 (HMGB1 [2]; male PH rats): no changes
- right ventricle systolic pressure ([3]; female Su/Hx rats, preventive study, 2.5 mg/kg/day i.p. for 2 wks, Su/Hx alone 73.2±3.4, p=0.0002): 50.4±3.0 mmHg
- right ventricle systolic pressure ([3]; female Su/Hx rats, treatment study, 2.5 mg/kg/day i.p. for 2 wks, Su/Hx alone 110.5±6.3, p=0.0005): 70.0±2.8 mmHg
- right ventricle (RV) systolic pressure ([3]; 2.5 mg/kg/day): decreases right ventricle (RV) systolic pressure
- right ventricle (RV) systolic pressure [3, 10]: decreased right ventricle (RV) systolic pressure
- protection of the RV ([3]; 2.5 mg/kg/day): protects the RV
- protection of the RV [3, 10]: protected the RV
- hemodynamic parameters / protection in males [3]: protected only by treatment protocol
- hemodynamic parameters / protection in males ([3]; listed as α-Cys106): no changes
- right ventricle systolic pressure ([3]; male Su/Hx rats, treatment protocol, 2.5 mg/kg/day i.p. for 2 wks, Su/Hx alone 101.7±2.7, p=0.0007, N=5-8): 73.4±6.4 mmHg
- PAH severity in Su/Hx model ([3]; rat Su/Hx, 2.5 mg/kg/day i.p. for 2 wks, 2.5 mg/kg/day): protective and treatment effects; also recorded: significantly attenuated PAH
- genotoxic stress in HPAEC [4]: protective effect
- genotoxic stress in vivo [5]: protects against genotoxic stress
- genotoxic stress in vivo ([5]; listed as αHMGB1^Cys106): inhibited genotoxic stress
- apoptosis in the lungs ([5]; female Su/Hx rats): decreases apoptosis; also recorded: mediates protection against apoptosis
- apoptosis in the lungs ([5]; female Su/Hx rats, listed as α-Cys106): anti-apoptotic effect
- apoptosis in the lungs ([5]; female Su/Hx rats, listed as αHMGB1^Cys106): reduced pulmonary apoptosis and senescence
- senescence [5]: protects against senescence
- senescence ([5]; listed as αHMGB1^Cys106): reduced pulmonary apoptosis and senescence
- cardiac fibrosis ([5]; heart of male Su/Hx rats): anti-fibrotic activity
- apoptosis in the lungs ([5]; male Su/Hx rats): does not manifest
- necroptosis ([5]; males at early PAH): protects against necroptosis
- cardiomyocyte hypertrophy ([5]; rat, in vivo): protective effect
- HMGB1 binding to DNA (HMGB1 elution after incubation with DNA cellulose) ([6]; FIG. 3): prevents HMGB1 binding to DNA
- decrease in HMGB1 binding to DNA ([6]; recombinant HMGB1, double-stranded DNA cellulose): ~5.9 fold
- p53 levels / expression (p53 [7]): reduces p53 levels
- p53 levels / expression (p53 [7]; listed as α-Cys106): negatively affected
- apoptosis in HPAEC [8]: anti-apoptotic effect
- cell apoptosis (apoptosis): attenuates apoptosis
- cell apoptosis (apoptosis; listed as α-Cys106): reduced cell apoptosis
- expression of p53 in vivo (p53 [9]): reduces expression of p53
- expression of p53 in vivo (p53 [9]; listed as αHMGB1^Cys106): negative regulation of p53 expression
- degradation of HMGB1 (HMGB1 [1]): lysosomal degradation
- cytosol and nuclear levels of HMGB1 (HMGB1 [1]): reduced; also recorded: affected
- cytosol and nuclear levels of HMGB1 (HMGB1 [1]; listed as HMGB1^Cys106 peptide): reduces HMGB1 levels
- cytosol and nuclear levels of HMGB1 (HMGB1 [1]; listed as TAT-α-HMGB1^Cys106): affected
- exit of nuclear HMGB1 to the cytosol (HMGB1 [1]): enhancing the nuclear HMGB1 exit to the cytosol
- exit of nuclear HMGB1 to the cytosol (HMGB1 [1]; listed as α-Cys106): enhanced the exit of nuclear HMGB1 to the cytosol
- degradation of HMGB1 (HMGB1 [1]; listed as α-Cys106): induced its proteasomal degradation
- HMGB1 level in PASMC (HMGB1 [1]; relative to untreated 1±0.097, N=6): 0.428±0.045
- HMGB1 level in PASMC with proteasome inhibitor (HMGB1 [1]; α-Cys106 plus proteasome inhibitor MG132, 10 μM, 1 hr, untreated 1±0.097, N=6): 0.885±0.049

Compound: CC(C)C[C@@H](C=O)NC(=O)[C@H](CC(C)C)NC(=O)[C@H](CC(C)C)NC(=O)OCc1ccccc1 [MG 132, reference compound] (Cbz-Leu-Leu-Leu-aldehyde)
- cytosolic and nuclear HMGB1 levels reduced by αHMGB1^Cys106 peptide, effect of proteasome inhibitor (HMGB1 [1]; FIGS. 2A, 2B): restores
